One data set deals with porcine liver esterase. The experiment in a line: Esterase enzymatic assay (radio-TLC cleavage). Type of data set: in vitro ADME. The conditions noted are these: 37 C. The protocol: The in vitro metabolism studies were performed using 25 U/mL solutions of porcine liver esterase in PBS. [^131I]HIB (1), [^131I]IPH (2), or [^131I]HIB-ether (3) (3.7 MBq each) was also dissolved in PBS with 10% DMSO. Esterase (2.5 U) was then added to each radiotracer solution, and the solution was gently shaken at 37° C.
With these hypotheses in mind, we performed systematic mechanistic studies. First, we carried out an esterase enzymatic assay. All three radiotracers, [^131I]HIB, [^131I]IPH, and [^131I]HIB-ether, were incubated separately with esterase (Sigma Aldrich, St. Louis, MO, USA) at 37° C. in a 10% DMSO/PBS mixture, and the progress of the reactions was monitored for 24 h by radio-TLC (FIG. 3A).

The nature of data set [1]: In vitro metabolism with mouse liver S9 fraction. Type of data set: in vitro ADME. Particulars: 4 h incubation. The protocol: (§1) For the in vitro metabolic studies with mouse liver S9 fraction and microsome, 1-3 (3.7 MBq) were dissolved in PBS with 10% DMSO and mixed with the mouse liver S9 fraction (0.2 mg in 10 μL) or the microsome (0.2 mg in 10 μL) with NADPH (0.25 mM). The reaction was performed upon shaking at 550 rpm at 37° C. The hydrolysis rate of each radiotracer was measured by radio-TLC for up to 24 h.

Data set [2] is described as follows: In vitro metabolism with mouse liver microsome. Type of data set: in vitro ADME. Particulars: 4 h incubation. The protocol: as §1
A short description of data set [3]: Ex vivo cleavage in liver homogenate. The protocol:
Ex vivo studies to determine the cleavage rates of the examined radiotracers in different organs were performed using the homogenates of mouse tissues collected from CT26 tumor models. Liver, spleen, and tumor tissues were collected and weighted. After the addition of ice-cold PBS solution at a ratio of 1:1 (w/w), the tissues were homogenized with a homogenizer (Ultra-Turrax, IKA, Selangor, Malaysia) under ice-cold conditions. The crude homogenate was then centrifuged at 2,000 g, and the sediment was discarded. Each supernatant (300 μL), referred to as tissue homogenate, was immediately mixed with each radiotracer (3.7 MBq) dissolved in PBS with 10% DMSO. The reaction was then performed upon shaking at 550 rpm at 37° C., and the hydrolysis rate of each radiotracer was measured by radio-TLC for up to 24 h. […] Urine and fecal samples were collected separately at 0.5, 1, 2, 4, 8, 16, and 24 h post-injection, and their radioactivity was measured with a dose calibrator (CRC-Ultra; Capintec, Florham Park, NJ, USA). […] The same urine sample was further analyzed by HPLC [Luna C8 column (4.6×50 mm, 5 μm), 0.1% TFA/H2O (solventA), and 0.1% TFA/acetonitrile (solvent B)] using a gradient of 10-100% B in 5 min and 10% B for 27 min, which continued for up to 45 min at a flow rate of 1 mL/min.

Data set [4] can be described thus: Lipophilicity (log P) of the radiotracer. Type of data set: physicochemical.
A short description of data set [5]: Ex vivo cleavage in spleen homogenate. The format is in vitro ADME, mouse. The conditions noted are these: 4 h and 24 h. An excerpt: Liver, spleen, and tumor tissues were collected and weighted.
A further data set has as its system normal BALB/c mice. The data set can be described thus: Urinary and fecal excretion of radioactive metabolites. Type of data set: in vivo, mouse.
The test system of data set [6] is orthotopic PANC-1/Luc+ pancreatic tumor BALB/c nude mice. The experiment in a line: PET/CT imaging of orthotopic pancreatic tumor model. Type of data set: in vivo. The conditions noted are these: L4 at 24 h post-injection; FDG at 1 h post-injection, same mouse. As to the method:
The establishment of the tumor in the orthotopic pancreatic tumor models was confirmed at 13 days post-inoculation of PANC-1/Luc+ cells into the pancreas tail with bioluminescence imaging using D-luciferin (60 mg/kg). The next day, [^18F]FDG-PET/CT (FDG: fluorodeoxyglucose) imaging was performed at 1 h post-injection (7.4 MBq/mouse) for 20 min.
Two days after [^18F]FDG imaging, [^124I]L4 (6.3-9.3 MBq in 200 μL PBS) was administered into the tail vein of the same mouse and PET/CT images were acquired at 1, 4, and 24 h post-injection.

These results are taken from patent US20240336632A1, “NOVEL COMPOUND COMPRISING ESTER GROUP AND USES THEREOF” (priority 2021, published 2024).

`CCCCCCCCCCCCCCCCOc1ccc(I)cc1` [[^131I]HIB-ether, 1-(hexadecyloxy)-4-[^124/131I]iodobenzene]: the cleavage percentage with porcine liver esterase (4 h) is 15.9%; in the data set with porcine liver esterase (24 h), 20.3%; in data set [1], 19.3%; in data set [2], 16.0%. The cleavage in data set [3] (4 h) came to 23%; in data set [3] (24 h) it was 25%.
Regarding `CCCCCCCCCCCCCCCCOC(=O)c1ccc([131I])cc1` [[^131I]HIB], the “log P” value in data set [4] is given as 2.19±0.04. Also, the cleavage percentage in data set [1] was found to be 89.7%; in data set [2], 85.3%. The cleavage in data set [3] (4 h) is on record as roughly 75%; in data set [3] (24 h) it was roughly 88%. Moreover, the “cleavage rate lower than in the liver” value in data set [5] was roughly 18%. Further, the “radioactivity in the feces relative to that in urine” value in the data set with normal BALB/c mice (after i.v. [131I]HIB-liposome) is given as “less than 5%”. Also, in the data set on normal BALB/c mice (urine 3 h post-injection, radio-TLC and HPLC), the “metabolite found in urine” value is 4-[^131I]iodobenzoic acid.
For the compound `CCCCCCCCCCCCCCCCC(=O)Oc1ccc([131I])cc1` [[^131I]IPH, 4-[^124/131I]iodophenyl heptadecanoate], the cleavage percentage in data set [1] came to 91.3%; in data set [2], 87.3%. Further, the cleavage is reported as roughly 75% in data set [3] (4 h) and roughly 88% in data set [3] (24 h). Moreover, the “cleavage rate lower than in the liver” value in data set [5] is reported as roughly 18%.
Regarding fluorodeoxyglucose [[^18F]FDG], the “tumor detection in PET image” value in data set [6] is reported as “the tumor could barely be detected”.
